Measured values: US20050032827A1, “Sigma ligands for neuronal regeneration and functional recovery” (priority 2003, published 2005)

Experiments:
sigma-1 site = sigma-1 site (Homo sapiens, UniProt Q99720); conditions: (+) isomers of benzomorphan opiates; Hellewell and Bowen (1990); cited from earlier work
[1] = system: SHR (spontaneous hypertensive) rats, stroke by MCA occlusion; test: Rotating pole test after MCA occlusion; format: in vivo, rat; conditions: 0.03-10 mg/kg s.c. or p.o. from two days after MCAO for 2-8 weeks; saline control
From the text: (§1) Male 3 months old SHR (spontaneous hypertensive) rats are used for induction of stroke by MCA occlusion. This is the preferred strain since most stroke patients are hypertensive. The animals are anesthetized with Methohexital and a small craniectomy is made above the zygmotic arch to expose the middle cerebral artery, which is occluded with a 10-0 monofilament nylon thread distal to the origin of the striatal branches. The rats are not intubated and no catheters are inserted. Following MCA occlusion a large and reproducible infarct is obtained, leading to a robust sensorimotor deficit. The animals are kept on a 6 hr light/18 h dark cycle with free access to food and water. At two days after the MCAO the rats are treated with the compound I, II, III, IV, V, VI, VII, VIII, or IX (0.03-10 mg/kg) s.c. or p.o. and a control group is given saline for 2-8 weeks. At 2, 4, 6 and 8 weeks animals are tested in the rotating pole or cylinder test
A score of 6-0 is given for each direction: • 6, the animal crosses the pole with no foot slips; • 5, the animal crosses the pole with a few foot slips; • 4, the animal crosses the pole, slipping 50% of the footsteps; • 3, the animal crosses the pole with more than 50% foot slips; • 2, the animal walks a bit and then rotates around the pole; • 1, the animal rotates around the pole without crossing it; • 0, the animal falls off the pole. Cylinder Test for Asymmetric Use of Forelimb Use in Spontaneous Rearing

[2] = system: SHR (spontaneous hypertensive) rats, stroke by MCA occlusion; test: Cylinder test for asymmetric forelimb use after MCA occlusion; format: in vivo, rat; conditions: 0.03-10 mg/kg s.c. or p.o. from two days after MCAO for 2-8 weeks; saline control
From the text: as §1
The cylinder test (modified from Schallert and Tillerson (Innovative models of CNS disease: from molecule to therapy. Clifton, N.J., Humana, 1999) is used to quantify the forelimb use for rearing on the cylinder wall. The rats are monitored as they move freely in a 20-cm-wide clear glass cylinder. Contacts made by each forepaw with the cylinder wall while rearing are scored by a blinded observer. A total of 20 contacts are recorded for each animal, and the number of impaired (left), both, and non-impaired forelimb contacts as percentage of total contacts is calculated. Baseline for rats is achieved by measuring the contacts made by each forepaw before MCAO.

[3] = system: NMDA-induced toxicity and seizures; conditions: in vivo models; Pontecorvo et al. (1991); cited from earlier work
[4] = system: cultured rat retinal neurons; conditions: Senda et al. (1998); cited from earlier work
sigma-1 receptor = sigma-1 receptor (Homo sapiens, UniProt Q99720); conditions: literature reports; cited from earlier work
sigma-1 receptor, sequence (Q99720 whole entry): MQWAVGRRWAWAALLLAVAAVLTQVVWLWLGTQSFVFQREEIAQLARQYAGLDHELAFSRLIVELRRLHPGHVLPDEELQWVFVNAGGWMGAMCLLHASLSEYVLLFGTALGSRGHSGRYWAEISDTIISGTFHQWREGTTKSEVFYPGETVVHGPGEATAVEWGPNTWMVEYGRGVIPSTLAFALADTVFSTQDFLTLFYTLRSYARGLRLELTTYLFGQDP

[5] = system: rat primary neuronal cultures; conditions: Nakazawa et al. (1998); cited from earlier work
[6] = system: NMDA-type of glutamate receptors; conditions: cited from earlier work
ischemia in gerbils = conditions: cited from earlier work
sigma-2 receptor = sigma-2 receptor (Homo sapiens, UniProt Q5BJF2); conditions: Perregaard et al. (1995); cited from earlier work
sigma-2 receptor, sequence (Q5BJF2 whole entry, species assumed): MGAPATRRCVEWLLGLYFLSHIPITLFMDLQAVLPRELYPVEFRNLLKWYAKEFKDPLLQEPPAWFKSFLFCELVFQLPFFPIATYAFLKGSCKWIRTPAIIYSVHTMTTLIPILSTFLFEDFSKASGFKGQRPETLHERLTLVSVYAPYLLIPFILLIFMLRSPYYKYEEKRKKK

[7] = hydrohalide salts, in particular the hydrochloride salt; WO 99/24436; cited from earlier work
[8] = system: hypertensive rats exposed to permanent middle artery occlusion (MCAO), a model of ischemic stroke; test: Morris water maze after permanent MCAO; format: in vivo, rat; conditions: for Latency to Find Hidden Platform, TRIAL 3 / Latency to Find Hidden Platform, TRIAL 4 / Latency to Find Hidden Platform, TRIAL 5 / Latency to Find Hidden Platform, TRIAL 1 / Latency to Find Hidden Platform, TRIAL 2 / Path Length to Find Hidden Platform, TRIAL 1 / Path Length to Find Hidden Platform, TRIAL 2 / Path Length to Find Hidden Platform, TRIAL 3 / Path Length to Find Hidden Platform, TRIAL 4 / Path Length to Find Hidden Platform, TRIAL 5: 14 days from day 2 after MCAO, tested day 35; for Latency to Find Hidden Platform, TRIAL 1 / Latency to Find Hidden Platform, TRIAL 2 / Path Length to Find Hidden Platform, TRIAL 1 / Path Length to Find Hidden Platform, TRIAL 2 / Path Length to Find Hidden Platform, TRIAL 3 / Path Length to Find Hidden Platform, TRIAL 4 / Path Length to Find Hidden Platform, TRIAL 5: value (SEM)
Experimental: The Morris water maze was used to assess functional recovery, in particular recovery in a cognitive skill, in hypertensive rats after exposure to permanent middle artery occlusion (MCAO), a model of ischemic stroke.
Forty three hypertensive rats were exposed to permanent middle artery occlusion (MCAO). Starting at two days after occlusion and continuing for 14 days, Siramesine was administered p.o. in doses of 0.3 mg/kg (14 rats) or 1.0 mg/kg (14 rats). In a control group (15 rats), vehicle only was administered. On day 35 after permanent MCAO, the rats were assessed for their performance in the Morris Water Maze Test.
In the test, the rats were given a series of 6 trials, 1 hour apart in a large dark-colored tank (200 cm in ) filled with clear water at a temperature of 22.0±1.5° C. A 12×12-cm submerged platform (2 mm below the water surface) was placed in the northwest quadrant of the pool. The release point was always the southern end of the pool. The rats were lowered into the pool facing the wall, and then released. Each rat was given a maximum of 90 seconds to find the submerged platform. […] After remaining on the platform for 20 seconds, the rat was removed and placed in a dry cage. One hour later, each rat was given a second trial, using the same release position and platform position, to measure the rat's retention of the platform location. The process was repeated a total of 5 times for each rat, each trial 1 hour apart. The swim paths of the rats were recorded with a computer tracking system and the latency and the length of swim path to find the hidden platform were analyzed.

sigma-1 site, sequence (Q99720 whole entry): as the sequence (Q99720 whole entry) above

## CC(C)=CCN1CCC2(C)c3cc(O)ccc3CC1C2C (single isomer, unassigned; (+)) [(+)pentazocine]
sigma-1 site
  affinity for the sigma-1 site compared to the sigma-2 site: nearly two orders of magnitude higher affinity for the sigma-1 site

## O=C(NC1CCN(Cc2ccccc2)CC1)c1ccc(I)cc1 [II]
[1]
  performance in rotating pole test versus control: perform better than the group 1 control animals
[2]
  performance in cylinder test versus control: perform better than the group 1 control animals

## O=C(OCCN1CCOCC1)C1(c2ccccc2)CCCCC1 [III]
[1]
  performance in rotating pole test versus control: perform better than the group 1 control animals
[2]
  performance in cylinder test versus control: perform better than the group 1 control animals

## O=C(CCCN1CCC(O)(c2ccc(Cl)cc2)CC1)c1ccc(F)cc1 [haloperidol]
[3]
  protective effects against NMDA-induced toxicity and seizures: protective effects against NMDA-induced toxicity and seizures

## COc1ccc(CCN2CCN(CCCc3ccccc3)CC2)cc1OC [SA4503, 1-(3,4-dimethoxyphenethyl)-4-(3-phenylpropyl) piperazine]
[4]
  activity against glutamate neurotoxicity: active against glutamate neurotoxicity
sigma-1 receptor
  sigma-1 receptor functional activity: selective sigma-1 agonist
[5]
  suppression of hypoxia/hypoglycemia-induced neurotoxicity: significantly suppress hypoxia/hypoglycemia-induced neurotoxicity

## CN(CCc1ccc(Cl)c(Cl)c1)C1CCCCC1N1CCCC1 (stereo not drawn) [VIII]
[1]
  performance in rotating pole test versus control: perform better than the group 1 control animals
[2]
  performance in cylinder test versus control: perform better than the group 1 control animals

## COc1ccc(CN2CCN(Cc3ccccc3)CC2)c(O)c1OC [IX]
[1]
  performance in rotating pole test versus control: perform better than the group 1 control animals
[2]
  performance in cylinder test versus control: perform better than the group 1 control animals

## OCCN1CCN(CCCN2c3ccccc3C=Cc3ccccc32)CC1 [opipramol]
[6]
  modulation of NMDA-type glutamate receptors: modulate the NMDA-type of glutamate receptors
Ischemia in gerbils
  protection against ischemia: protect against ischemia in gerbils

## CCN(CC)CCOC(=O)C1(c2ccccc2)CCCC1 [caramiphen]
[3]
  protective effects against NMDA-induced toxicity and seizures: protective effects against NMDA-induced toxicity and seizures

## COc1ccc(CCN2CCN(CCCc3ccccc3)CC2)cc1OC [IV]
[1]
  performance in rotating pole test versus control: perform better than the group 1 control animals
[2]
  performance in cylinder test versus control: perform better than the group 1 control animals

## COCCCC/C(=N\OCCN)c1ccc(C(F)(F)F)cc1 [compound I]
[1]
  performance in rotating pole test versus control: perform better than the group 1 control animals
[2]
  performance in cylinder test versus control: perform better than the group 1 control animals

## Fc1ccc(-n2cc(CCCCN3CCC4(CC3)OCc3ccccc34)c3ccccc32)cc1 [Siramesine, 1′-[4-[1-(4-fluorophenyl)-1H-indol-3-yl]-1-butyl] spiro [isobenzofuran-1(3H),4′-piperidine]]
sigma-2 receptor
  sigma-2 receptor functional activity: selective sigma-2 agonist
[1]
  performance in rotating pole test versus control: perform better than the group 1 control animals
[7]
  bioavailability: good bioavailability
[2]
  performance in cylinder test versus control: perform better than the group 1 control animals
sigma-1 receptor
  sigma-1 receptor functional activity: displays activity towards the sigma 1 receptor
[8]; 0.3 mg/kg p.o.
  Latency to Find Hidden Platform, TRIAL 3: 47.0 s
  Latency to Find Hidden Platform, TRIAL 4: 33.1 s
  Latency to Find Hidden Platform, TRIAL 5: 15.66 s
  Latency to Find Hidden Platform, TRIAL 1: 72.4 (7.3) SECONDS
  Latency to Find Hidden Platform, TRIAL 2: 43.6 (7.9) SECONDS
  Path Length to Find Hidden Platform, TRIAL 1: 14.5 (1.8) METERS
  Path Length to Find Hidden Platform, TRIAL 2: 12.4 (2.3) METERS
  Path Length to Find Hidden Platform, TRIAL 3: 14.4 (2.7) METERS
  Path Length to Find Hidden Platform, TRIAL 4: 10.4 (2.4) METERS
  Path Length to Find Hidden Platform, TRIAL 5: 4.3 (0.6) METERS
[8]; 1.0 mg/kg p.o.
  Latency to Find Hidden Platform, TRIAL 3: 59.99 s
  Latency to Find Hidden Platform, TRIAL 4: 34.3 s
  Latency to Find Hidden Platform, TRIAL 5: 19.8 s
  Latency to Find Hidden Platform, TRIAL 1: 62.4 (7.7) SECONDS
  Latency to Find Hidden Platform, TRIAL 2: 62.2 (8.5) SECONDS
  Path Length to Find Hidden Platform, TRIAL 1: 11.1 (1.4) METERS
  Path Length to Find Hidden Platform, TRIAL 2: 16.2 (2.2) METERS
  Path Length to Find Hidden Platform, TRIAL 3: 16.65 (2.2) METERS
  Path Length to Find Hidden Platform, TRIAL 4: 9.7 (1.9) METERS
  Path Length to Find Hidden Platform, TRIAL 5: 5.29 (1.5) METERS
[8]; administered daily to rats from 2 days after the stroke for 14 days
  functional recovery, in particular recovery in a cognitive skill: facilitates functional recovery

## COc1cccc2c1CCC(=O)N2CCCN1CCN(c2cccc(Cl)c2)CC1 [VII]
[1]
  performance in rotating pole test versus control: perform better than the group 1 control animals
[2]
  performance in cylinder test versus control: perform better than the group 1 control animals

## OC(CCCN1CCN(c2ncc(F)cn2)CC1)c1ccc(F)cc1 (stereo not drawn) [BMY-14802]
[3]
  protective effects against NMDA-induced toxicity and seizures: protective effects against NMDA-induced toxicity and seizures

## CCC(C/C=C/c1ccccc1)(c1ccccc1)N(C)CC1CC1 (stereo not drawn) [VI]
[1]
  performance in rotating pole test versus control: perform better than the group 1 control animals
[2]
  performance in cylinder test versus control: perform better than the group 1 control animals
